Measurements: patent US8916526B2, “Flavanone derivative” (National University Corporation Okayama University, priority 2009, dated 2014)
pIC50: −log10 of the molar value. In brackets after ≈: the same amount, converted by molar mass. Read-outs that look alike come from different tables or passages of the source.

How the values were obtained:
[1] = tested on: Vancomycin intermediate-resistant Staphylococcus aureus Mu50; experiment: In vitro infectivity assay (MIC), Exp. Ex. 2-1; type: cell-based; settings: Gram-positive, microdilution, MIC after 24 h
Method: (§1) The antibacterial activities were measured based on broth dilution techniques of international standards (Clinical Laboratory Standards Institute: CLSI). The activities were shown by minimum inhibitory concentrations (MICs) determined by inoculating the above-mentioned strains at a concentration of about 10^5 […] into Mueller-Hinton broth (manufactured by Difco) containing 0.85% NaCl in 96-well microplates and incubating the plates at 35° C. for 24 hours. Measurement was carried out three times.
(§2) The antibacterial activities of the compounds of the present invention against various strains such as vancomycin-resistant enterococci (VRE), vancomycin intermediate-resistant Staphylococcus aureus (VISA), methicillin-resistant Staphylococcus aureus (MRSA), and methicillin-sensitive Staphylococcus aureus (MSSA) were examined. Of the bacteria used in MIC measurement in this test example, clinical bacteria of MRSA (OM481 strain and OM584 strain) were supplied from Okayama University Hospital (Japan). An MRSA strain N315, a vancomycin intermediate-resistant Staphylococcus aureus (VISA) strain Mu50, and a methicillin-sensitive Staphylococcus aureus (MSSA) strain FDA 209P were used as controls. Vancomycin-resistant enterococcus (VRE) strains NCTC 12201 and FN-1 were supplied from the National Institute of Infectious Disease (Japan).

[2] = tested on: Vancomycin-resistant enterococci FN-1; experiment: In vitro infectivity assay (MIC), Exp. Ex. 2-1; type: cell-based; settings: Gram-positive, microdilution, MIC after 24 h
Method: as §1, §2

[3] = tested on: Vancomycin-resistant enterococci NCTC 12201; experiment: In vitro infectivity assay (MIC), Exp. Ex. 2-1; type: cell-based; settings: Gram-positive, microdilution, MIC after 24 h
Method: as §1, §2

[4] = tested on: Methicillin sensitive S. aureus 209P; experiment: In vitro infectivity assay (MIC), Exp. Ex. 2-1; type: cell-based, Staphylococcus aureus; settings: Gram-positive, microdilution, MIC after 24 h
Method: as §1, §2

[5] = tested on: Methicillin-resistant S. aureus COL; experiment: In vitro infectivity assay (MIC), Exp. Ex. 2-1; type: cell-based, Staphylococcus aureus; settings: Gram-positive, microdilution, MIC after 24 h
Method: as §1, §2

[6] = tested on: Methicillin-resistant S. aureus N315; experiment: In vitro infectivity assay (MIC), Exp. Ex. 2-1; type: cell-based, Staphylococcus aureus; settings: Gram-positive, microdilution, MIC after 24 h
Method: as §1, §2

[7] = tested on: Methicillin-resistant S. aureus OM481; experiment: In vitro infectivity assay (MIC), Exp. Ex. 2-1; type: cell-based, Staphylococcus aureus; settings: Gram-positive, microdilution, MIC after 24 h
Method: as §1, §2

[8] = tested on: Methicillin-resistant S. aureus OM584; experiment: In vitro infectivity assay (MIC), Exp. Ex. 2-1; type: cell-based, Staphylococcus aureus; settings: Gram-positive, microdilution, MIC after 24 h
Method: as §1, §2

[9] = tested on: Streptococcus pneumoniae R6; experiment: In vitro infectivity assay (MIC), Exp. Ex. 2-1; type: cell-based; settings: Gram-positive, microdilution, MIC after 24 h
Escherichia coli K-12 = experiment: Antibacterial activity (MIC) against Gram-negative strains, microdilution; type: cell-based; settings: for MIC (Gram-nagative) K-12: MIC after 24 h
Method: as §1

[10] = tested on: Pseodomonas aeruginosa PAOI; experiment: as above; type: cell-based; settings: MIC after 24 h
Method: as §1

E. coli DNA gyrase = target: T1, E. coli DNA gyrase (Escherichia coli, UniProt P0AES4+P0AES6); experiment: DNA gyrase inhibition (supercoiling kit), Exp. Ex. 2-2; type: biochemical
T1 construct: purchased John Innes Enterprises #K0001
T1 sequence (P0AES4 whole entry, one chain of several): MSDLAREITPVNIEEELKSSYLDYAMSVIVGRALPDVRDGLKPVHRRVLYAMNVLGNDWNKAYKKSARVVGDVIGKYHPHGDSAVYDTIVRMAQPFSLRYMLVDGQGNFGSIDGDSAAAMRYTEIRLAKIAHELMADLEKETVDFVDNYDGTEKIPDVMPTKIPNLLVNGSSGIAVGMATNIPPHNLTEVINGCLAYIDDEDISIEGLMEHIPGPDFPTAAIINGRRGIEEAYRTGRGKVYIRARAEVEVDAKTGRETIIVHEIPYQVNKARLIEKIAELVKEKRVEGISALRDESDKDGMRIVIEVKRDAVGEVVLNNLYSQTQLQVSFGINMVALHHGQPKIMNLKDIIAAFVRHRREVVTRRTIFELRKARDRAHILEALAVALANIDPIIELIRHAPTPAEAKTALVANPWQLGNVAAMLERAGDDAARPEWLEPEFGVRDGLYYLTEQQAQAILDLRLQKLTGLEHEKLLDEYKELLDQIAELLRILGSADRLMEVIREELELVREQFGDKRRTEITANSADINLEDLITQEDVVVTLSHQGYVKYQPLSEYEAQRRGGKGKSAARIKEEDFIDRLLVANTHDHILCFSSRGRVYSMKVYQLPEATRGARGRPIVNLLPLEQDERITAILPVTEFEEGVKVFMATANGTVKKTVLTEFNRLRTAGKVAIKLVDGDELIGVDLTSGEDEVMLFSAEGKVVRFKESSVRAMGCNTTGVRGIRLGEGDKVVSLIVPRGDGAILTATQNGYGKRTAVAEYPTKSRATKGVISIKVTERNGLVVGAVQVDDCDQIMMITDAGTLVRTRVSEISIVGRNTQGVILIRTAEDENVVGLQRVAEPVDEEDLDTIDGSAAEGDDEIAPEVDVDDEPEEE
Method: As a kit for measurement of DNA gyrase of Escherichia coli, a product purchased from John Innes Enterprises (Gyrase Supercoiling assay kit #K0001) was used. Relaxed DNA was modified with gyrase into supercoiled DNA, and reaction products were separated by electrophoresis depending on the sizes of the molecular weights to examine anti-gyrase effects (IC50). 1 unit (1 U) of DNA gyrase and […] of relaxed pBR322 DNA were added to […] of the reaction solution, and the mixture was allowed to react at 37° C. for 30 minutes in the presence of 35 mM Tris-HCl (pH 7.5), 24 mM KCl, 4 mM MgCl2, 2 mM DTT, 1.8 mM spermidine, 1 mM ATP, 6.5% (w/v) glycerol, and 0.1 mg/ml BSA. The reactions were stopped using […] of a reaction stop solution (40% sucrose, 100 mM Tris-HCl (pH 7.5), 1 mM EDTA, 0.5 mg/ml bromophenol blue).

[11] = target: T2, Escherichia coli Topoisomerase IV (Escherichia coli, UniProt P0AFI2+P20083); experiment: Topoisomerase IV inhibition (decatenation kit), Exp. Ex. 2-3; type: biochemical; settings: decatenation of kDNA, 37° C., 30 minutes; read-out: IC50 (E. coli topoisomerase IV inhibitions)
T2 construct: purchased John Innes Enterprises
T2 sequence (P20083 whole entry): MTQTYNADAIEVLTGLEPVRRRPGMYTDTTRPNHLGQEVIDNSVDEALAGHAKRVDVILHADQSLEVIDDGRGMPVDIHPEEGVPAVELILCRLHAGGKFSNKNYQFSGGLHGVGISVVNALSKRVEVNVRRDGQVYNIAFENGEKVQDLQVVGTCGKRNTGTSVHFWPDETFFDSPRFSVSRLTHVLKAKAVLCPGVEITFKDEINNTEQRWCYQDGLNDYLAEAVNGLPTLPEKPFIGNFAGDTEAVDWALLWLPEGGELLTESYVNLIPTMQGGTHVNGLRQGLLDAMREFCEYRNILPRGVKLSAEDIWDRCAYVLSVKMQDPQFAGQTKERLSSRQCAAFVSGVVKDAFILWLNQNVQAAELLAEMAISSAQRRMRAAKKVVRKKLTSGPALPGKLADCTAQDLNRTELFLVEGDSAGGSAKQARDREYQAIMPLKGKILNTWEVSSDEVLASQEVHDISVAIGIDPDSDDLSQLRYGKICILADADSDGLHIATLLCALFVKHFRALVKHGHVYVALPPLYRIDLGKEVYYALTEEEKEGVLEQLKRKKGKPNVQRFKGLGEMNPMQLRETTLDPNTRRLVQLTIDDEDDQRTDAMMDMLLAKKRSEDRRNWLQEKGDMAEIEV
T2 sequence (P0AFI2 whole entry): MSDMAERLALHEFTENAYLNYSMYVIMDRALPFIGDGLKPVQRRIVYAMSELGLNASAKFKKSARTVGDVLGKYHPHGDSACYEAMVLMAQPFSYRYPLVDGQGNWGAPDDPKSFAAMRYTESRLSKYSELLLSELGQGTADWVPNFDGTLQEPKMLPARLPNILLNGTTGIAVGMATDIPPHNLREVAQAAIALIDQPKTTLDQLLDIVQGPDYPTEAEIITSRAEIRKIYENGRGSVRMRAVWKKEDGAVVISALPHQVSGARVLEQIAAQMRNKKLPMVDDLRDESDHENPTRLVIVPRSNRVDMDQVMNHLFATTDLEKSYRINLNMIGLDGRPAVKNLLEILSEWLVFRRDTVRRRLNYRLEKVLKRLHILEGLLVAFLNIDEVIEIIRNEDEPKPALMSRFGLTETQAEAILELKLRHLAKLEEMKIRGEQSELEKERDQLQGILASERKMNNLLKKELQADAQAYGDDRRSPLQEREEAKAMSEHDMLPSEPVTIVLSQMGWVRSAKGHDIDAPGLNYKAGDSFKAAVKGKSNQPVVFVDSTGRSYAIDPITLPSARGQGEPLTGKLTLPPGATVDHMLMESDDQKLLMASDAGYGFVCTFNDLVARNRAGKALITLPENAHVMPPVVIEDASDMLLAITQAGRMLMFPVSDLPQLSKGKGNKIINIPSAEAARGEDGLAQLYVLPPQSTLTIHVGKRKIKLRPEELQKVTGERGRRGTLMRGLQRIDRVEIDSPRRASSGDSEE
Method: (§3) Staphylococcus aureus Topoisomerase IV and Escherichia coli Topoisomerase IV were purchased from John Innes Enterprises. 1 unit of topoisomerase IV was cultured with 200 ng of kinetoplast DNA (kDNA) in 30 L of a reaction solution at 37° C. for 30 minutes under the conditions of 50 mM Tris-HCl (pH 7.5) (S. aureus)/50 mM HEPES-KOH (pH 7.6) (E. coli), 5 mM MgCl2 (S. aureus)/5 mM magnesium acetate (E. coli), 350 mM potassium glutamate (S. aureus)/100 mM potassium glutamate (E. coli), 5 mM dithiotheri (S. aureus)/10 mM dithiotheri (E. coli), 1.5 mM ATP (S. aureus)/1 mM ATP (E. coli), and 40% (w/v) glycerol. The reactions were stopped by adding 8 L of a reaction stop solution (40% sucrose, 100 mM Tris.HCl (pH 7.5), 1 mM EDTA, 0.5 mg/ml bromophenol blue). Agarose gel (1.0%) was poured into TAE (40 mM Tris acetate, 2 mM EDTA).

[12] = target: T3, Staphylococcus aureus Topoisomerase IV (Staphylococcus aureus, UniProt P0C1S7+P0C1U9); experiment: as above; type: biochemical
T3 construct: purchased John Innes Enterprises
T3 sequence (P0C1U9 whole entry): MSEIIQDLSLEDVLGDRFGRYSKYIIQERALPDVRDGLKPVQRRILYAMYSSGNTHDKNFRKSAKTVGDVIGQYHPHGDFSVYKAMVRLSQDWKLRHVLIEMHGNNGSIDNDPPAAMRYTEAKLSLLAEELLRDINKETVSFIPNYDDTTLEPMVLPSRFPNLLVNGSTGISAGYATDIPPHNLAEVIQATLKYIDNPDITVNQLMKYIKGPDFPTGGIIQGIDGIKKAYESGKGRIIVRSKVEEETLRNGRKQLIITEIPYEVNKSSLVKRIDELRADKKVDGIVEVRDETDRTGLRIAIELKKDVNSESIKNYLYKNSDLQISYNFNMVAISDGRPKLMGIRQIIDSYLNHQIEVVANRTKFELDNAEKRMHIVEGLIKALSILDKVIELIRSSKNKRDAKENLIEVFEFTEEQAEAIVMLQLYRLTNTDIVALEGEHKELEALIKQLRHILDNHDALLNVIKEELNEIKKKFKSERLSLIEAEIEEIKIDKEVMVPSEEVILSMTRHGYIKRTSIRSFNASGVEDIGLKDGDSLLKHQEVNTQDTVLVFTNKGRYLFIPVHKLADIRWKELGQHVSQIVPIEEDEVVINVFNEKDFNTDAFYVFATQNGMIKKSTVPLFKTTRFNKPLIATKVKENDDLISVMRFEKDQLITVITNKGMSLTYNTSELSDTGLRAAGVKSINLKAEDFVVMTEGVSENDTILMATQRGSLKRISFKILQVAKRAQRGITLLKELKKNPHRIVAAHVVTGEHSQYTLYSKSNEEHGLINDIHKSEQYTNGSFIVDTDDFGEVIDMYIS
T3 sequence (P0C1S7 whole entry): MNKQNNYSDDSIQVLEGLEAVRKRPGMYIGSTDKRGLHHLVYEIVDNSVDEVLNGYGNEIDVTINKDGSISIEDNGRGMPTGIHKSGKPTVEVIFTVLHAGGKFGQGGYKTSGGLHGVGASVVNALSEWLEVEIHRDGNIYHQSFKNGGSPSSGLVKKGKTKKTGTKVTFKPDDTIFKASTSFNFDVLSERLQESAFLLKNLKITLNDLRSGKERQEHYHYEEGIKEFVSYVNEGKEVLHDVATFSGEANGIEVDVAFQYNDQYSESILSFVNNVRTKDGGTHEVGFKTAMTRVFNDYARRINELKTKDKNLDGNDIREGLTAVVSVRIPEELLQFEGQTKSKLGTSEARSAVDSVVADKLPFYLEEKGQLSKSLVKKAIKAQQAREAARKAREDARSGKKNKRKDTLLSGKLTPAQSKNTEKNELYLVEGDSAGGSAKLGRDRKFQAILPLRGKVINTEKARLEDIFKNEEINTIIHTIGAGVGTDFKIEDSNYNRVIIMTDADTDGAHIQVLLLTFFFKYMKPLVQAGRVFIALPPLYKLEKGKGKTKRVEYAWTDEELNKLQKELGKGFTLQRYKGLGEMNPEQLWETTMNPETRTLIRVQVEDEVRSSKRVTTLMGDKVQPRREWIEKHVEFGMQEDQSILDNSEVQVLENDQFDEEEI
Method: as §3

[13] = supercoiling activity, 37° C., 30 minutes, read-out: IC50 (E. coli DNA gyrase inhibitions)
[14] = decatenation of kDNA, 37° C., 30 minutes, read-out: IC50 (S. aureus topoisomerase IV inhibitions)

Cc1ccc(CCC(=O)OCC2OC(Oc3c(-c4ccc(O)c(O)c4)oc4cc(O)cc(O)c4c3=O)C(OC(=O)CCc3ccc(C)cc3)C(O)C2O)cc1 [Compound 14l, 2-(3′,4′-Dihydroxyphenyl)-5,7-dihydroxy-3-β-D-{2″,6″-di-O-[3′″-(4-methylphenylpropanoyl)]}galactosyl-4H-chromen-4-one] was tested, and the MIC ([1]; Staphylococcus aureus, VISA, read-out: MIC VISA Mu50) was 16 µg/mL (≈ 21.1 µM), the MIC ([2]; Enterococcus, VRE, read-out: MIC VRE FN-1) was 32 µg/mL (≈ 42.3 µM) and the MIC ([3]; Enterococcus, NCTC 12201 / VRE, read-out: MIC VRE NCTC 12201) was 32 µg/mL (≈ 42.3 µM). It also gave an MIC ([4]; Staphylococcus aureus, 209P / MSSA, read-out: MIC MSSA 209P) of 16 µg/mL (≈ 21.1 µM), an MIC ([5]; Staphylococcus aureus, MRSA) of 32 µg/mL (≈ 42.3 µM) and an MIC ([6]; Staphylococcus aureus, MRSA, read-out: MIC MRSA N315) of 16 µg/mL (≈ 21.1 µM). The MIC ([7]; Staphylococcus aureus, MRSA, read-out: MIC MRSA OM481) was 16 µg/mL (≈ 21.1 µM), the MIC ([8]; Staphylococcus aureus, MRSA, read-out: MIC MRSA OM584) was 16 µg/mL (≈ 21.1 µM) and the MIC ([9]; Streptococcus pneumoniae, R6, read-out: MIC S. Pneumoniae R6) was 32 µg/mL (≈ 42.3 µM). For the same molecule, the MIC (Escherichia coli K-12; K12, MIC after 24 h, read-out: MIC (Gram-nagative) K-12) was > 128 µg/mL, the MIC ([10]; read-out: MIC (Gram-nagative) PAO1) was > 128 µg/mL and the pIC50 (E. coli DNA gyrase) was 5.75. It also gave a pIC50 [11] of 5.10 and a pIC50 [12] of 5.59.

With O=C(CCc1ccc(F)cc1)OC[C@H]1O[C@@H](Oc2c(-c3ccc(O)c(O)c3)oc3cc(O)cc(O)c3c2=O)[C@H](OC(=O)CCc2ccc(F)cc2)[C@@H](O)[C@H]1O [Compound 14i, 2-(3′,4′-Dihydroxyphenyl)-5,7-dihydroxy-3-β-D-{2″,6″-di-O-[3′″-(4-fluorophenylpropanoyl)]}galactosyl-4H-chromen-4-one] the “MIC VISA Mu50” value [1] was 0.5 µg/mL (≈ 0.654 µM), the “MIC VRE FN-1” value [2] was 0.25 µg/mL (≈ 0.327 µM) and the “MIC VRE NCTC 12201” value [3] was 0.25 µg/mL (≈ 0.327 µM). The “MIC MSSA 209P” value [4] was 0.13 µg/mL (≈ 0.17 µM), the “MIC MRSA COL” value [5] was 0.5 µg/mL (≈ 0.654 µM) and the “MIC MRSA N315” value [6] was 0.13 µg/mL (≈ 0.17 µM). The “MIC MRSA OM481” value [7] was 0.13 µg/mL (≈ 0.17 µM), the “MIC MRSA OM584” value [8] was 0.13 µg/mL (≈ 0.17 µM) and the “MIC S. Pneumoniae R6” value [9] was 0.13 µg/mL (≈ 0.17 µM). For the same molecule, the “MIC (Gram-nagative) K-12” value (Escherichia coli K-12) was >128 µg/mL, the “MIC (Gram-nagative) PAO1” value [10] was >128 µg/mL and the pIC50 (E. coli DNA gyrase; [13]) was 6.11. The pIC50 [11] was 5.15 and the pIC50 [12, 14] was 6.66.

O=C(OC[C@H]1O[C@@H](Oc2c(-c3ccc(O)c(O)c3)oc3cc(O)cc(O)c3c2=O)[C@H](OC(=O)c2ccc(F)cc2)[C@@H](O)[C@H]1O)c1ccc(F)cc1 [Compound 14c, 2-(3′,4′-Dihydroxyphenyl)-5,7-dihydroxy-3-β-D-[2″,6″-di-O-(4-fluorobenzoyl)]galactosyl-4H-chromen-4-one] was tested, and the “MIC VISA Mu50” value [1] was 2 µg/mL (≈ 2.82 µM), the “MIC VRE FN-1” value [2] was 4 µg/mL (≈ 5.65 µM) and the “MIC VRE NCTC 12201” value [3] was 4 µg/mL (≈ 5.65 µM). For the same molecule, the “MIC MSSA 209P” value [4] was 4 µg/mL (≈ 5.65 µM), the “MIC MRSA COL” value [5] was 8 µg/mL (≈ 11.3 µM) and the “MIC MRSA N315” value [6] was 8 µg/mL (≈ 11.3 µM). For the same molecule, the “MIC MRSA OM481” value [7] was 2 µg/mL (≈ 2.82 µM), the “MIC MRSA OM584” value [8] was 2 µg/mL (≈ 2.82 µM) and the “MIC S. Pneumoniae R6” value [9] was 4 µg/mL (≈ 5.65 µM). The “MIC (Gram-nagative) K-12” value (Escherichia coli K-12) was >128 µg/mL, the “MIC (Gram-nagative) PAO1” value [10] was >128 µg/mL and the pIC50 (E. coli DNA gyrase; [13]) was 6.42. It also gave a pIC50 [11] of 5.15 and a pIC50 [12, 14] of 6.28.

In the case of O=C(CCc1ccc(F)cc1)OC[C@H]1O[C@@H](Oc2c(-c3ccc(O)c(O)c3)oc3cc(O)cc(O)c3c2=O)[C@H](OC(=O)CCc2ccc(F)cc2)[C@@H](O)[C@H]1O [Compound 14m, 2-(3′,4′-Dihydroxyphenyl)-5,7-dihydroxy-3-β-D-{2″,6″-di-O-[3′″-(4-fluorophenylpropanoyl)]}galactosyl-4H-chromen-4-one], the “MIC VISA Mu50” value [1] was 32 µg/mL (≈ 41.8 µM), the “MIC VRE FN-1” value [2] was 16 µg/mL (≈ 20.9 µM) and the “MIC VRE NCTC 12201” value [3] was 16 µg/mL (≈ 20.9 µM). For the same molecule, the “MIC MSSA 209P” value [4] was 16 µg/mL (≈ 20.9 µM), the “MIC MRSA COL” value [5] was 32 µg/mL (≈ 41.8 µM) and the “MIC MRSA N315” value [6] was 16 µg/mL (≈ 20.9 µM). For the same molecule, the “MIC MRSA OM481” value [7] was 16 µg/mL (≈ 20.9 µM), the “MIC MRSA OM584” value [8] was 16 µg/mL (≈ 20.9 µM) and the “MIC S. Pneumoniae R6” value [9] was 32 µg/mL (≈ 41.8 µM). The “MIC (Gram-nagative) K-12” value (Escherichia coli K-12) was >128 µg/mL, the “MIC (Gram-nagative) PAO1” value [10] was >128 µg/mL and the pIC50 (E. coli DNA gyrase; [13]) was 5.85. For the same molecule, the pIC50 [11] was 5.12 and the pIC50 [12, 14] was 5.52.

With O=C(CCCCc1ccc(F)cc1)OC[C@H]1O[C@@H](Oc2c(-c3ccc(O)c(O)c3)oc3cc(O)cc(O)c3c2=O)[C@H](OC(=O)CCCCc2ccc(F)cc2)[C@@H](O)[C@H]1O [Compound 14k, 2-(3′,4′-Dihydroxyphenyl)-5,7-dihydroxy-3-β-D-{2″,6″-di-O-[3′″-(4-fluorophenylpentanoyl)]}galactosyl-4H-chromen-4-one] the “MIC VISA Mu50” value [1] was 16 µg/mL (≈ 19.5 µM), the “MIC VRE FN-1” value [2] was 16 µg/mL (≈ 19.5 µM) and the “MIC VRE NCTC 12201” value [3] was 16 µg/mL (≈ 19.5 µM). The “MIC MSSA 209P” value [4] was 4 µg/mL (≈ 4.87 µM), the “MIC MRSA COL” value [5] was 16 µg/mL (≈ 19.5 µM) and the “MIC MRSA N315” value [6] was 2 µg/mL (≈ 2.44 µM). The “MIC MRSA OM481” value [7] was 4 µg/mL (≈ 4.87 µM), the “MIC MRSA OM584” value [8] was 4 µg/mL (≈ 4.87 µM) and the “MIC S. Pneumoniae R6” value [9] was 8 µg/mL (≈ 9.75 µM). The “MIC (Gram-nagative) K-12” value (Escherichia coli K-12) was >128 µg/mL, the “MIC (Gram-nagative) PAO1” value [10] was >128 µg/mL and the pIC50 (E. coli DNA gyrase; [13]) was 5.30. For the same molecule, the pIC50 [11] was < 4.92 and the pIC50 [12, 14] was 5.39.
